Data reported in patent US11291206B2, “Herbicidal composition comprising cinmethylin and specific pigment synthesis inhibitors” (BASF Agro B.V., priority 2015, dated 2022).

Assays:
Assay type in all cases: in vivo
Papaver rhoeas = test: Greenhouse pre-emergence herbicidal activity; settings: preemergence, PAPRH, 20 DAT
Protocol: (§1) The test plants have been seeded, separately for each species, in plastic containers in sandy loamy soil containing 5% of organic matter.
(§2) The containers were irrigated gently to promote germination and growth and subsequently covered with transparent plastic hoods until the plants had rooted.
(§3) The plants have been cultivated due to their individual requirements at 10-25° C. and 20-35° C. The plants were irrigated due to their necessity.
(§4) The racemic mixture (±)-2-exo-(2-M ethylbenzyloxy)-1-methyl-4-isopropyl-7-oxabicyclo[2.2.1]heptane was used as herbicide A and formulated as emulsifiable concentrates with an active ingredient concentration of 50g/I, 100 g/I or 750 g/I respectively.
(§5) Clomazone (herbicide B.3) was used as wettable powder (WP) formulation having an active ingredient concentration of 50%.
(§6) In the following experiments, the herbicidal activity for the individual herbicidal compositions (solo and mixture applications) was assessed 20 days after treatment (DAT).
(§7) The evaluation for the damage on undesired weeds caused by the chemical compositions was carried out using a scale from 0 to 100%, compared to the untreated control plants. Here, 0 means no damage and 100 means complete destruction of the plants.
(§8) E=X+Y−(X·Y/100) where • X=effect in percent using herbicide A at an application rate a; • Y=effect in percent using herbicide B at application rate b; • E=expected effect (in %) of herbicide A+herbicide B at application rates a+b.
(§9) The value E corresponds to the effect (plant damage or injury) which is to be expected if the activity of the individual compounds is additive.

Polygonum convolvulus = test: Greenhouse pre-emergence herbicidal activity; settings: preemergence, POLCO, 20 DAT
Protocol: as §1, §2, §3, §4, §5, §6, §7, §8, §9

Brassica napus = test: Greenhouse pre-emergence herbicidal activity; settings: preemergence, BRSNW, 20 DAT
Protocol: as §1, §2, §3, §4, §5, §6, §7, §8, §9

Anthemis arvensis [1] = test: Greenhouse pre-emergence herbicidal activity; settings: preemergence, ANTAR, 20 DAT
Protocol: as §1, §2, §3, §4, §5, §6, §7, §8, §9

Lolium multiflorum [2] = test: Greenhouse pre-emergence herbicidal activity; settings: preemergence, LOLMU, 20 DAT
Protocol: as §1, §2, §3, §4, §5, §6, §7, §8, §9

Geranium dissectum = test: Greenhouse pre-emergence herbicidal activity; settings: preemergence, GERDI, 20 DAT
Protocol: as §1, §2, §3, §4, §5, §6, §7, §8, §9

Anthemis arvensis [3] = test: Greenhouse post-emergence herbicidal activity; settings: postemergence, ANTAR, 20 DAT
Protocol: as §1
(§10) For the post emergence treatment, the plants were first grown to the 2 leaf station (GS 12) and applied at GS 12-19 depending on the species. Here, the herbicidal compositions were suspended or emulsified in water as distribution medium and sprayed using finely distributing nozzels.
as §3, §4, §5, §6, §7, §8, §9

Lolium multiflorum [4] = test: Greenhouse post-emergence herbicidal activity; settings: postemergence, LOLMU, 20 DAT
Protocol: as §1, §10, §3, §4, §5, §6, §7, §8, §9

[5] = solo application herbicide A 250 g ai/ha
[6] = solo application herbicide A 62.5 g ai/ha
[7] = solo application herbicide A 125 g ai/ha
[8] = solo application clomazone 500 g ai/ha
[9] = solo application clomazone 125 g ai/ha
[10] = solo application clomazone 187.5 g ai/ha
[11] = solo application clomazone 250 g ai/ha
[12] = solo application clomazone 750 g ai/ha

Cc1ccccc1CO[C@@H]1C[C@@]2(C(C)C)CC[C@]1(C)O2 (racemic) [herbicide A, (±)-2-exo-(2-Methylbenzyloxy)-1-methyl-4-isopropyl-7-oxabicyclo[2.2.1]heptane]
herbicidal activity (Papaver rhoeas; [5]): 65%
herbicidal activity (Polygonum convolvulus; [6]): 0%
herbicidal activity (Brassica napus; [6]): 0%
herbicidal activity (Brassica napus; [5]): 15%
herbicidal activity (Brassica napus; solo application herbicide A 500 g ai/ha): 40%
herbicidal activity (Anthemis arvensis [1]; [6]): 0%
herbicidal activity (Anthemis arvensis [1]; [7]): 20%
herbicidal activity (Lolium multiflorum [2]; [6]): 85%
herbicidal activity (Geranium dissectum; [6]): 70%
herbicidal activity (Geranium dissectum; [7]): 70%
herbicidal activity (Geranium dissectum; [5]): 70%
herbicidal activity (Anthemis arvensis [3]; [7]): 0%
herbicidal activity (Anthemis arvensis [3]; [5]): 40%
herbicidal activity (Lolium multiflorum [4]; [6]): 35%

CC1(C)CON(Cc2ccccc2Cl)C1=O [clomazone, 2-(2-chlorobenzyl)-4,4-dimethyl-1,2-oxazolidin-3-one]
herbicidal activity (Papaver rhoeas; [8]): 90%
herbicidal activity (Polygonum convolvulus; [9]): 75%
herbicidal activity (Brassica napus; [9]): 40%
herbicidal activity (Brassica napus; [10]): 45%
herbicidal activity (Brassica napus; [8]): 75%
herbicidal activity (Brassica napus; solo application clomazone 1000 g ai/ha): 90%
herbicidal activity (Anthemis arvensis [1]; [9]): 60%
herbicidal activity (Anthemis arvensis [1]; [11]): 85%
herbicidal activity (Lolium multiflorum [2]; [9]): 85%
herbicidal activity (Geranium dissectum; [9]): 30%
herbicidal activity (Geranium dissectum; [11]): 40%
herbicidal activity (Geranium dissectum; [12]): 80%
herbicidal activity (Anthemis arvensis [3]; solo application clomazone 375 g ai/ha): 75%
herbicidal activity (Anthemis arvensis [3]; [12]): 90%
herbicidal activity (Lolium multiflorum [4]; [9]): 80%
herbicidal activity (Lolium multiflorum [4]; [10]): 90%
